Experimental data taken from patent US20220053796A1, “COMPOSITION FOR SUPPORTING ANIMAL WITH CANCER” (MARS, INCORPORATED, priority 2018, published 2022).
Where a name gives a salt, the structure may show the parent alone. Read-outs that look alike come from different tables or passages of the source.

Experiments:
Type in all cases: cell-based, canine
CMT-12 cancer cell line = assay: MTT proliferation assay; conditions: Canis lupus familiaris
Method: (§1) Cells were plated at a density of 4×10^3 cells per well on 96-well tissue culture-treated flat bottom plates and incubated overnight in complete medium. Cells were treated the following day with DMSO control or extract using a twofold serial dilution for 8 final concentrations ranging from […] to 100 μg mL-1 for 48 h to assess all extracts for potential effectiveness at reducing cellular proliferation. To quantify cellular proliferation, MTT dye assays were performed by adding 30 μL of MTT dye (5 mg mL-1 in phosphate-buffered saline solution) to each well and incubating at 37° C. for 1 h. Media were then aspirated and the cells were solubilized in 200 μL of isopropanol. The optical density of each well was analyzed on a spectrophotometric plate reader (Epoch; Biotek, Winooski, Vt., USA) at a wavelength of 570 nm.
(§2) Synergy between extracts was examined using combinations of two extracts at six concentrations: 0.8, 1.7, 3.1, 6.3, 12.5, or 25 μg mL-1. The percent proliferating cells of control for each treatment was pooled from all experiments and is reported as mean f standard error of the mean.
(§3) Raw data from proliferation assays (optical density of each well) were normalized to the vehicle alone treatment for individual assays, considered to represent 100% proliferating cells (single or combined treatment). The % proliferating cells was then averaged across each replicate. The IC50 for each extract was then calculated across experiments by Probit analysis. The compound interactions were calculated by multiple drug effect analysis using CalcuSyn software (v.2.11; Biosoft, Cambridge, GB, United Kingdom).

D17 cancer cell line = assay: MTT proliferation assay; conditions: Canis lupus familiaris
Method: as §1, §2, §3

HMPOS = assay: ATPlite proliferation assay; conditions: Canis lupus familiaris, 72 h
Method: (§4) The different cancer cell lines were plated at the optimal number of cells per well in 90 μL of appropriate medium/well in flat-bottom microtitration 96-well plates. Plates were incubated at 37° C. for 24 hours before treatment in drug free culture medium. After a first dilution process, 10 μl of the test substances (single) were added on plate containing cells 24h after plating. Tumor cell lines were incubated for 72 h at 37° C. under 5% CO2 with 9 concentrations of each natural extract in 1:2 dilution steps. Top dose was 100 μg/ml for each plant extract and 1 μM for doxorubicin. Each concentration was tested in triplicates. Dilutions of each test substance as well as distribution to plates containing cells were performed manually. At least 2 independent experiments were performed for each plant extract. Control cells were treated with vehicles alone. […]
(§5) At the end of treatments, the cytotoxic activity of tested substances was evaluated by ATP-Lite assay (Ref. 6016949, Perkin-Elmer, and Batch 69-12172). […] This ATP level is quantified by the luminescence emitted by the firefly luciferase, through an ATP-dependent reaction. […] After, the plate was left for ten minutes in the dark and luminescence was measured as LV (Luminescence Value).
Chou-Tallalay CI corresponds to the combination indexes calculated using the appropriate algorithms. […]

CF41.Mg cell line = assay: ATPlite proliferation assay; conditions: Canis lupus familiaris, 72 h
Method: as §4, §5

C2 cancer cell line = assay: MTT proliferation assay
Method: as §1, §2, §3

[1] = read-out: chemotherapy IC50 (mass concentration in brackets)

Compound	IC50 (CMT-12 cancer cell line; read-out: chemotherapy IC50) [nM]	IC50 (CMT-12 cancer cell line; [1]) [µg/mL]	IC50 (D17 cancer cell line; read-out: chemotherapy IC50) [nM]	IC50 (D17 cancer cell line; [1]) [µg/mL]	IC50 (HMPOS) [nM]	IC50 (CF41.Mg cell line) [nM]	chemotherapy IC50 (mass concentration in brackets) (C2 cancer cell line)	IC50 (C2 cancer cell line; read-out: chemotherapy IC50) [nM]
COc1cccc2c1C(=O)c1c(O)c3c(c(O)c1C2=O)C[C@@](O)(C(=O)CO)C[C@@H]3O[C@H]1C[C@H](N)[C@H](O)[C@H](C)O1 [doxorubicin hydrochloride]	300	0.163	500	0.272	11	375 ± 361		
toceranib phosphate							nM (6.2 ng mL^−1)	12.5
